Some test systems named below: DU-145; NCI-H522; MOLT-4; SK-MEL-28; MCF7; HCT-15; UO-31; IGROV-1; KM12; SF-539; A498; HOP-92; RXF 393; T47D; SNB-75; K562; NCI/ADR-RES; MDA-MB-435; SNB-19; MDA-N.
Holding throughout (assay): growth of human tumour cells (NCI), 48 h

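How tested: cells in 96-well plates exposed to compound for 48 hours at five concentrations. GI50 is the concentration that inhibits growth by half.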 Activity calls are given as the source filed them. Rule as the data show it: active = GI50 up to about 1.1 µM and inactive = higher. Where only a bound is given, the exact number is not on record here.

`O=C(O)c1ccccc1-c1ccccc1C(=O)Nc1ccc2c(c1)nc(O)c1ccccc12`: the GI50 in the test on DU-145 was > 100 µM (inactive); in the test on NCI-H522, 61.8 µM (inactive); with MOLT-4, 25.8 µM (inactive); in the test with SK-MEL-28 it was > 100 µM (inactive); with MCF7, > 100 µM (inactive); in the test on HCT-15, greater than 100 µM. Further, the GI50 in the test with UO-31 is > 100 µM (inactive); in the test with IGROV-1 it was 94.4 µM (inactive); with KM12, > 100 µM (inactive); in the test with SF-539, 94.2 µM (inactive); in the test on A498, 34.3 µM (inactive); in the test on HOP-92, > 100 µM (inactive). For the same molecule, the GI50 with RXF 393 was > 100 µM (inactive); in the test on T47D, > 100 µM (inactive); with SNB-75, 93.3 µM (inactive); with K562 it was 39.6 µM (inactive); in the test on NCI/ADR-RES it was > 100 µM (inactive); in the test with MDA-MB-435 it was 89.7 µM (inactive). In the test with SNB-19, the GI50 is 83.4 µM (inactive).

With `COc1ccc(-n2c(N)c(C#N)c(C#N)c2-c2cccc([N+](=O)[O-])c2)cc1`, the GI50 in the test on DU-145 is 43.3 µM (inactive); in the test on NCI-H522 it was > 100 µM (inactive); in the test with MOLT-4, 2.46 µM (inactive); with MCF7, 61.5 µM (inactive); in the test with HCT-15, greater than 100 µM; with UO-31, 15 µM (inactive). Also, the GI50 with IGROV-1 is 23.8 µM (inactive); in the test on KM12 it was 62.5 µM (inactive); in the test on SF-539, 32.4 µM (inactive); with A498, > 100 µM (inactive); with HOP-92 it was 15.3 µM (inactive); in the test on RXF 393 it was 2.55 µM (inactive). Besides, the GI50 in the test with T47D is 35.2 µM (inactive); in the test on SNB-75, 2.96 µM (inactive); with K562, > 100 µM (inactive); in the test on NCI/ADR-RES it was > 100 µM (inactive); with MDA-MB-435, > 100 µM (inactive); in the test with SNB-19, 49.8 µM (inactive).

Regarding `CCOc1ccc(NC(=O)C(=O)Nn2c(N)nnc2N)cc1`, the GI50 is > 100 µM (inactive) with NCI-H522; > 100 µM (inactive) with MOLT-4; > 100 µM (inactive) in the test on SK-MEL-28; > 100 µM (inactive) in the test with MCF7; greater than 100 µM with HCT-15; > 100 µM (inactive) in the test on UO-31. Besides, the GI50 in the test with IGROV-1, in the test with KM12, in the test with SF-539, in the test with A498, in the test on MDA-N and in the test with HOP-92 was > 100 µM (inactive) throughout. In addition, the GI50 in the test on RXF 393, in the test with T47D, with SNB-75, in the test on K562, in the test with NCI/ADR-RES and in the test on MDA-MB-435 was > 100 µM (inactive) each time.

Take `c1ccc(C2=Nc3nc4ccccc4n3C(c3ccccc3)C2)cc1` (centres undefined): the GI50 in the test on NCI-H522 is > 100 µM (inactive); in the test with MOLT-4, > 100 µM (inactive); in the test with SK-MEL-28, > 100 µM (inactive); in the test on MCF7, > 100 µM (inactive); in the test with HCT-15, greater than 100 µM; in the test with UO-31 it was > 100 µM (inactive). For the same molecule, the GI50 is > 100 µM (inactive) in the test with IGROV-1; > 100 µM (inactive) in the test with KM12; > 100 µM (inactive) with SF-539; > 100 µM (inactive) in the test with A498; > 100 µM (inactive) in the test with MDA-N; 24.6 µM (inactive) with HOP-92. Further, the GI50 in the test on RXF 393 is 41 µM (inactive); in the test with T47D, > 100 µM (inactive); in the test with SNB-75, 27.9 µM (inactive); with K562 it was > 100 µM (inactive); with NCI/ADR-RES, > 100 µM (inactive); in the test with MDA-MB-435 it was 36 µM (inactive). Also, the GI50 in the test on SNB-19 was 44.8 µM (inactive).

For the origin of these results see ChEMBL document CHEMBL1201862, “PubChem BioAssay data set” (2004).
